According to patent US10072027B2, “Preparation of high-purity gadobutrol” (BAYER INTELLECTUAL PROPERTY GMBH, priority 2011, dated 2018):

Columns and labels:
Assay type in all cases: physicochemical
[1] = Solubility of polymorphs I and II in water; conditions: for Solubility in water: at 20° C. in water
[2] = Dissolution of the active compound during preparation of the pharmaceutical
Protocol: Differences between the two monohydrates I and II were observed during dissolution of the active compound. In general, the time required to get monohydrate I into solution is 45 minutes at 40-50° C.

[3] = Stability on storage under ICH conditions
Excerpt: Three batches of monohydrate I and one batch of monohydrate II were stored under ICH conditions. […] No decomposition products were observed, and no other parameters of the specification were changed substantially. On storage, the batches maintained their solid state.

[4] = 6 months at 40° C./75% relative atmospheric humidity
[5] = 36 months at 25° C./60% relative atmospheric humidity
[6] = 36 months at 30° C./75% relative atmospheric humidity

| Structure (SMILES) | Solubility in water (in words) ([1]; water) | dissolution state during the time monohydrate I needs ([2]; 45 minutes at 40-50° C.) | Solubility in water [1] | Stability on storage [3, 4] | Stability on storage [3, 5] | Stability on storage [3, 6] | time required to get into solution ([2]; at 40-50° C.) |
| --- | --- | --- | --- | --- | --- | --- | --- |
| O=C([O-])CN1CCN(CC(=O)[O-])CCN(C(CO)C(O)CO)CCN(CC(=O)[O-])CC1.[Gd+3] (centres unmarked) [gadobutrol, Gd complex of N-(1-hydroxymethyl-2,3-dihydroxypropyl)-1,4,7-triscarboxymethyl-1,4,7,10-tetraazacyclododecane] | soluble in water in almost any ratio | – | – | – | – | – | – |
| O.O=C([O-])CN1CCN(CC(=O)[O-])CCN([C@H](CO)[C@H](O)CO)CCN(CC(=O)[O-])CC1.[Gd+3] [monohydrate II] | – | incompletely dissolved | 922 ± 9 g/L | remained unchanged | remained unchanged | remained unchanged | – |
| O.O=C([O-])CN1CCN(CC(=O)[O-])CCN([C@H](CO)[C@H](O)CO)CCN(CC(=O)[O-])CC1.[Gd+3] [monohydrate I] | – | – | 1081 ± 2 g/L | remained unchanged | remained unchanged | remained unchanged | 45 min |
